From PubChem BioAssay (NCI)
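Five compound concentrations were applied to cells in 96-well plates for 48 hours; endpoints were derived by simple linear interpolation of the resulting dose-response curve. At the GI50, growth is halved. TGI: total growth inhibition.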

Experiments:
Assay in all cases: NCI-60 cell line screen, 48 h
786-0 renal = test system: 786-0 renal
A498 renal = test system: A498 renal
A549 NSCLC = test system: A549 NSCLC
ACHN renal = test system: ACHN renal
BT-549 breast = test system: BT-549 breast
CAKI-1 renal = test system: CAKI-1 renal
CCRF-CEM leukemia = test system: CCRF-CEM leukemia
COLO 205 colon = test system: COLO 205 colon
DU-145 prostate = test system: DU-145 prostate
EKVX NSCLC = test system: EKVX NSCLC
HCC-2998 colon = test system: HCC-2998 colon
HCT-116 colon = test system: HCT-116 colon
HCT-15 colon = test system: HCT-15 colon
HL-60(TB) leukemia = test system: HL-60(TB) leukemia
HOP-62 NSCLC = test system: HOP-62 NSCLC
HOP-92 NSCLC = test system: HOP-92 NSCLC
HS 578T breast = test system: HS 578T breast
HT29 colon = test system: HT29 colon
IGROV1 ovarian = test system: IGROV1 ovarian
K-562 leukemia = test system: K-562 leukemia
KM12 colon = test system: KM12 colon
LOX IMVI melanoma = test system: LOX IMVI melanoma
M14 melanoma = test system: M14 melanoma
MALME-3M melanoma = test system: MALME-3M melanoma
MCF7 breast = test system: MCF7 breast
MDA-MB-231 breast = test system: MDA-MB-231 breast
MDA-MB-435 = test system: MDA-MB-435
MDA-MB-468 breast = test system: MDA-MB-468 breast
MOLT-4 leukemia = test system: MOLT-4 leukemia
NCI-H226 lung = test system: NCI-H226 lung
NCI-H23 lung = test system: NCI-H23 lung
NCI-H460 lung = test system: NCI-H460 lung
NCI-H522 lung = test system: NCI-H522 lung
NCI/ADR-RES ovarian = test system: NCI/ADR-RES ovarian
OVCAR-3 ovarian = test system: OVCAR-3 ovarian
OVCAR-4 ovarian = test system: OVCAR-4 ovarian
OVCAR-5 ovarian = test system: OVCAR-5 ovarian
OVCAR-8 ovarian = test system: OVCAR-8 ovarian
PC-3 prostate = test system: PC-3 prostate
RPMI-8226 leukemia = test system: RPMI-8226 leukemia
RXF 393 renal = test system: RXF 393 renal
SF-268 CNS = test system: SF-268 CNS
SF-295 CNS = test system: SF-295 CNS
SF-539 CNS = test system: SF-539 CNS
SK-MEL-2 melanoma = test system: SK-MEL-2 melanoma
SK-MEL-28 melanoma = test system: SK-MEL-28 melanoma
SK-MEL-5 melanoma = test system: SK-MEL-5 melanoma
SK-OV-3 ovarian = test system: SK-OV-3 ovarian
SN12C renal = test system: SN12C renal
SNB-19 CNS = test system: SNB-19 CNS
SNB-75 CNS = test system: SNB-75 CNS
SR leukemia = test system: SR leukemia
SW-620 colon = test system: SW-620 colon
T-47D breast = test system: T-47D breast
TK-10 renal = test system: TK-10 renal
U251 CNS = test system: U251 CNS
UACC-257 melanoma = test system: UACC-257 melanoma
UACC-62 melanoma = test system: UACC-62 melanoma
UO-31 renal = test system: UO-31 renal

Q: For O=C(CNc1nc(-c2ccccc2)cs1)Nc1cccc(Cl)c1, which GI50 (786-0 renal) is on record?
A: 13.1 µM

Q: And the TGI (786-0 renal)?
A: 38.3 µM

Q: What about the GI50 (A498 renal) of the same molecule?
A: 11.5 µM

Q: What about the TGI (A498 renal) of the same molecule?
A: 33.5 µM

Q: What about the GI50 (A549 NSCLC) of the same molecule?
A: 9.22 µM

Q: And the TGI (A549 NSCLC)?
A: 62.4 µM

Q: What about the GI50 (ACHN renal) of the same molecule?
A: 6.57 µM

Q: What about the TGI (ACHN renal) of the same molecule?
A: 19.8 µM

Q: And the GI50 (BT-549 breast)?
A: 4.82 µM

Q: What about the TGI (BT-549 breast) of the same molecule?
A: 19 µM

Q: What about the GI50 (CAKI-1 renal) of the same molecule?
A: 3.13 µM

Q: And the TGI (CAKI-1 renal)?
A: 42.9 µM

Q: What about the GI50 (CCRF-CEM leukemia) of the same molecule?
A: 3.76 µM

Q: And the TGI (CCRF-CEM leukemia)?
A: > 100 µM

Q: And the GI50 (COLO 205 colon)?
A: 15.6 µM

Q: What about the TGI (COLO 205 colon) of the same molecule?
A: 36.5 µM

Q: What about the GI50 (DU-145 prostate) of the same molecule?
A: 15.2 µM

Q: And the TGI (DU-145 prostate)?
A: 37.2 µM

Q: What about the GI50 (EKVX NSCLC) of the same molecule?
A: 3.59 µM

Q: And the TGI (EKVX NSCLC)?
A: 15.3 µM

Q: What about the GI50 (HCC-2998 colon) of the same molecule?
A: 11.2 µM

Q: And the TGI (HCC-2998 colon)?
A: 23.2 µM

Q: And the GI50 (HCT-116 colon)?
A: 4.99 µM

Q: And the TGI (HCT-116 colon)?
A: 34.1 µM

Q: And the GI50 (HCT-15 colon)?
A: 4.49 µM

Q: And the TGI (HCT-15 colon)?
A: 16.1 µM

Q: And the GI50 (HL-60(TB) leukemia)?
A: 3.53 µM

Q: What about the TGI (HL-60(TB) leukemia) of the same molecule?
A: 23.1 µM

Q: What about the GI50 (HOP-62 NSCLC) of the same molecule?
A: 12.6 µM

Q: What about the TGI (HOP-62 NSCLC) of the same molecule?
A: 36 µM

Q: And the GI50 (HOP-92 NSCLC)?
A: 2.37 µM

Q: And the TGI (HOP-92 NSCLC)?
A: 15.1 µM

Q: And the GI50 (HS 578T breast)?
A: 7.94 µM

Q: And the TGI (HS 578T breast)?
A: > 100 µM

Q: What about the GI50 (HT29 colon) of the same molecule?
A: 10.1 µM

Q: What about the TGI (HT29 colon) of the same molecule?
A: 24 µM

Q: And the GI50 (IGROV1 ovarian)?
A: 5.27 µM

Q: And the TGI (IGROV1 ovarian)?
A: 21.5 µM

Q: What about the GI50 (K-562 leukemia) of the same molecule?
A: 3.84 µM

Q: And the TGI (K-562 leukemia)?
A: 26 µM

Q: What about the GI50 (KM12 colon) of the same molecule?
A: 6.33 µM

Q: What about the TGI (KM12 colon) of the same molecule?
A: 22.5 µM

Q: And the GI50 (LOX IMVI melanoma)?
A: 3.31 µM

Q: What about the TGI (LOX IMVI melanoma) of the same molecule?
A: 16.4 µM

Q: And the GI50 (M14 melanoma)?
A: 10.4 µM

Q: And the TGI (M14 melanoma)?
A: 42.3 µM

Q: And the GI50 (MALME-3M melanoma)?
A: 15 µM

Q: And the TGI (MALME-3M melanoma)?
A: 28.3 µM

Q: And the GI50 (MCF7 breast)?
A: 5.42 µM

Q: And the TGI (MCF7 breast)?
A: 18.3 µM

Q: What about the GI50 (MDA-MB-231 breast) of the same molecule?
A: 4.03 µM

Q: What about the TGI (MDA-MB-231 breast) of the same molecule?
A: 17.8 µM

Q: What about the GI50 (MDA-MB-435) of the same molecule?
A: 12.5 µM

Q: And the TGI (MDA-MB-435)?
A: 33.5 µM

Q: And the GI50 (MDA-MB-468 breast)?
A: 4.01 µM

Q: And the TGI (MDA-MB-468 breast)?
A: 13.5 µM

Q: What about the GI50 (MOLT-4 leukemia) of the same molecule?
A: 3.22 µM

Q: And the TGI (MOLT-4 leukemia)?
A: 15.9 µM

Q: What about the GI50 (NCI-H226 lung) of the same molecule?
A: 10.1 µM

Q: And the TGI (NCI-H226 lung)?
A: 45.4 µM

Q: What about the GI50 (NCI-H23 lung) of the same molecule?
A: 9.24 µM

Q: And the TGI (NCI-H23 lung)?
A: 22.8 µM

Q: What about the GI50 (NCI-H460 lung) of the same molecule?
A: 10.1 µM

Q: What about the TGI (NCI-H460 lung) of the same molecule?
A: 28.6 µM

Q: And the GI50 (NCI-H522 lung)?
A: 4.01 µM

Q: What about the TGI (NCI-H522 lung) of the same molecule?
A: 16.1 µM

Q: And the GI50 (NCI/ADR-RES ovarian)?
A: 6.39 µM

Q: What about the TGI (NCI/ADR-RES ovarian) of the same molecule?
A: 45.3 µM

Q: And the GI50 (OVCAR-3 ovarian)?
A: 7.14 µM

Q: And the TGI (OVCAR-3 ovarian)?
A: 21.5 µM

Q: And the GI50 (OVCAR-4 ovarian)?
A: 6.4 µM

Q: What about the TGI (OVCAR-4 ovarian) of the same molecule?
A: 20.9 µM

Q: And the GI50 (OVCAR-5 ovarian)?
A: 13 µM

Q: What about the TGI (OVCAR-5 ovarian) of the same molecule?
A: 25.7 µM

Q: And the GI50 (OVCAR-8 ovarian)?
A: 7.2 µM

Q: What about the TGI (OVCAR-8 ovarian) of the same molecule?
A: 74.6 µM

Q: What about the GI50 (PC-3 prostate) of the same molecule?
A: 2.86 µM

Q: What about the TGI (PC-3 prostate) of the same molecule?
A: 37.6 µM

Q: What about the GI50 (RPMI-8226 leukemia) of the same molecule?
A: 4.61 µM

Q: What about the TGI (RPMI-8226 leukemia) of the same molecule?
A: > 100 µM

Q: And the GI50 (RXF 393 renal)?
A: 5.39 µM

Q: And the TGI (RXF 393 renal)?
A: 18.4 µM

Q: What about the GI50 (SF-268 CNS) of the same molecule?
A: 7.45 µM

Q: And the TGI (SF-268 CNS)?
A: 52.3 µM

Q: What about the GI50 (SF-295 CNS) of the same molecule?
A: 5.13 µM

Q: And the TGI (SF-295 CNS)?
A: 18.1 µM

Q: And the GI50 (SF-539 CNS)?
A: 11.2 µM

Q: And the TGI (SF-539 CNS)?
A: 23.3 µM

Q: What about the GI50 (SK-MEL-2 melanoma) of the same molecule?
A: 11.8 µM

Q: What about the TGI (SK-MEL-2 melanoma) of the same molecule?
A: 26 µM

Q: And the GI50 (SK-MEL-28 melanoma)?
A: 13 µM

Q: What about the TGI (SK-MEL-28 melanoma) of the same molecule?
A: 25.9 µM

Q: What about the GI50 (SK-MEL-5 melanoma) of the same molecule?
A: 7.04 µM

Q: And the TGI (SK-MEL-5 melanoma)?
A: 19.8 µM

Q: What about the GI50 (SK-OV-3 ovarian) of the same molecule?
A: 14.1 µM

Q: What about the TGI (SK-OV-3 ovarian) of the same molecule?
A: 44.9 µM

Q: And the GI50 (SN12C renal)?
A: 6.3 µM

Q: What about the TGI (SN12C renal) of the same molecule?
A: 20.7 µM

Q: What about the GI50 (SNB-19 CNS) of the same molecule?
A: 11 µM

Q: What about the TGI (SNB-19 CNS) of the same molecule?
A: 28 µM

Q: What about the GI50 (SNB-75 CNS) of the same molecule?
A: 3.22 µM

Q: What about the TGI (SNB-75 CNS) of the same molecule?
A: 19.7 µM

Q: What about the GI50 (SR leukemia) of the same molecule?
A: 3.94 µM

Q: What about the TGI (SR leukemia) of the same molecule?
A: > 100 µM

Q: What about the GI50 (SW-620 colon) of the same molecule?
A: 12.1 µM

Q: What about the TGI (SW-620 colon) of the same molecule?
A: 30.3 µM

Q: And the GI50 (T-47D breast)?
A: 6.04 µM

Q: And the TGI (T-47D breast)?
A: 22.6 µM

Q: And the GI50 (TK-10 renal)?
A: 14.9 µM

Q: What about the TGI (TK-10 renal) of the same molecule?
A: 29.7 µM

Q: What about the GI50 (U251 CNS) of the same molecule?
A: 5.15 µM

Q: What about the TGI (U251 CNS) of the same molecule?
A: 19.5 µM

Q: What about the GI50 (UACC-257 melanoma) of the same molecule?
A: 13 µM

Q: And the TGI (UACC-257 melanoma)?
A: 26.9 µM

Q: What about the GI50 (UACC-62 melanoma) of the same molecule?
A: 3.33 µM

Q: What about the TGI (UACC-62 melanoma) of the same molecule?
A: 16.6 µM

Q: And the GI50 (UO-31 renal)?
A: 2.41 µM

Q: What about the TGI (UO-31 renal) of the same molecule?
A: 14.8 µM
